In PubChem BioAssay (NCI) one finds TGI data, which are given here for 16 compounds.

Structures are written as SMILES.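 Briefly, cells in 96-well plates were exposed to five compound concentrations for 48 h, and endpoints were estimated by linear interpolation. TGI: concentration producing complete growth inhibition.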

What all share (assay): inhibition of tumour cell growth, NCI panel, 48 h
The test system of assay [1] is A498 renal.
Assay [2] concerns COLO 205 colon.
In assay [3] the test system is HL-60(TB) leukemia.
Assay [4] deals with HOP-92 NSCLC.
Assay [5] deals with HS 578T breast.
The subject of assay [6] is IGROV1 ovarian.
Assay [7] concerns K-562 leukemia.
Assay [8] has as its system KM12 colon.
Assay [9] relates to M14 melanoma.
Assay [10] concerns MALME-3M melanoma.
For assay [11], the system named is NCI-H23 lung.
For assay [12], the system named is NCI-H460 lung.
In assay [13] the test system is NCI/ADR-RES ovarian.
Assay [14] deals with RPMI-8226 leukemia.
The test system of assay [15] is SF-295 CNS.
Assay [16] relates to SF-539 CNS.
For assay [17], the system named is T-47D breast.
Assay [18] relates to U251 CNS.

As for `Nc1ncn2c(n1)nc1ccccc12`, the TGI in assay [1], in assay [2], in assay [3], in [4], in [5] and in assay [6] was greater than 100 µM throughout. Moreover, the TGI in [7], in assay [8], in assay [9], in assay [10], in assay [11] and in [12] was greater than 100 µM each time. The TGI in [13], in assay [14], in assay [15], in assay [16], in [17] and in [18] was greater than 100 µM in each case.

For `CCCCCCCCCCCCCCC(O)C[N+](C)(CCO)CCO` (stereo unspecified), the TGI came to 22.6 µM in assay [1]; 3.19 µM in assay [2]; 2.71 µM in assay [3]; 5.76 µM in assay [4]; 7.87 µM in [5]; 3.14 µM in assay [6]. Besides, the TGI in assay [7] is greater than 38.1 µM; in assay [8], 4.23 µM; in [9], 3.66 µM; in assay [10] it was 7.54 µM; in [11] it was 20.7 µM; in assay [12], 6.56 µM. The TGI turned out to be 49 µM in assay [13]; 5.52 µM in [14]; 9.96 µM in assay [15]; 7.21 µM in [16]; 30.6 µM in [17]; 2.89 µM in assay [18].

On to `Clc1ccc(-c2cn3c(nc4ccccc43)c(/C=C/c3ccco3)n2)cc1`, for which the TGI is 96.3 µM in assay [1]; greater than 100 µM in [2]; 41.7 µM in assay [3]; 50.4 µM in assay [4]; 61.8 µM in assay [5]; greater than 100 µM in [6]. Moreover, the TGI in assay [7], in [8], in assay [9], in [10], in assay [11] and in assay [12] was greater than 100 µM in each case. Also, the TGI is greater than 100 µM in assay [13]; 39.8 µM in assay [14]; greater than 100 µM in assay [16]; greater than 100 µM in assay [17]; greater than 100 µM in assay [18].

As to `CCOC(=O)c1nc2ccc(C(F)(F)F)cc2nc1Nc1ccc(Cl)c(Cl)c1`, the TGI in [1], in assay [2], in [3], in assay [4], in [5] and in assay [6] was greater than 100 µM each time. Further, the TGI in assay [7], in assay [8], in assay [9], in [10], in assay [11] and in assay [12] was greater than 100 µM in each case. In addition, the TGI in assay [13], in [14], in assay [15], in [16] and in assay [17] was greater than 100 µM throughout.

For the compound `COc1cc2c(c(O)c1OC)CC1CCC(=O)N1C2c1cccc2ccccc12` (stereo unspecified), the TGI is 68.8 µM in assay [1]; 28.9 µM in [2]; greater than 100 µM in assay [3]; 45.7 µM in assay [4]; 69.3 µM in [5]; 59.3 µM in [6]. Also, the TGI in assay [7] was greater than 100 µM; in assay [8], 55.4 µM; in [9] it was 33.8 µM; in assay [10] it was 44.5 µM; in assay [11], 67.6 µM; in assay [12] it was 61.1 µM. Besides, the TGI in [13] is 53.7 µM; in assay [14], greater than 100 µM; in [15] it was 41.1 µM; in assay [16], 30.6 µM; in assay [17], 48.4 µM; in assay [18] it was 42.9 µM.

Take `C=C1CC(Cn2ccc(=O)[nH]c2=O)(c2ccc(Cl)cc2)OC1=O` (stereo unspecified): the TGI was 32.4 µM in [1]; 3.44 µM in assay [2]; greater than 100 µM in [3]; 3.89 µM in assay [4]; 38.7 µM in assay [5]; 9.98 µM in assay [6]. For the same compound, the TGI was 5.38 µM in [7]; greater than 58.4 µM in assay [8]; 12.9 µM in [9]; 7.13 µM in [10]; 12.8 µM in assay [11]; 26.1 µM in assay [12]. In addition, the TGI amounted to 19 µM in [13]; 3.94 µM in [14]; 38.6 µM in [15]; 30.4 µM in assay [16]; 12.1 µM in assay [17]; 31.7 µM in assay [18].

Regarding `COC(=O)c1ccc(C)cc1CC1Cc2ccc(C)cc2C1=O` (stereo unspecified), the TGI was 9.19 µM in assay [1]; 26.1 µM in [2]; 10.7 µM in assay [3]; 61.4 µM in [4]; 48.9 µM in [5]; greater than 100 µM in assay [6]. Moreover, the TGI came out at 10.5 µM in assay [7]; 22.1 µM in assay [8]; 32.2 µM in assay [9]; 24.3 µM in [10]; 74.7 µM in assay [11]; 31.3 µM in assay [12]. Besides, the TGI in [13] stood at 18.3 µM; in assay [14], 36.5 µM; in [15] it was 96.7 µM; in [16] it was 19.5 µM; in assay [17], 63 µM; in assay [18] it was 16.3 µM.

Turning to `O=c1[nH]cc(Cl)c(=O)[nH]1`, the TGI in assay [1], in assay [2], in [3], in [4], in assay [5] and in [6] was greater than 100 µM each time. Further, the TGI in assay [7], in [8], in assay [9], in assay [10], in [11] and in assay [12] was greater than 100 µM in each case. Moreover, the TGI in [13], in assay [14], in [15], in assay [16], in [17] and in assay [18] was greater than 100 µM in each case.

In the case of `COc1ccc(C2C(C#N)=C(S)N(C3OC(COC(C)=O)C(OC(C)=O)C(OC(C)=O)C3OC(C)=O)C(c3ccccc3)=C2C(C)=O)cc1` (stereo unspecified), the TGI in assay [1], in [2], in assay [3], in assay [4], in [5] and in [6] was greater than 100 µM each time. Also, the TGI in assay [7], in assay [8], in assay [9], in assay [10], in assay [11] and in assay [12] was greater than 100 µM throughout. Also, the TGI was greater than 100 µM in assay [13]; greater than 100 µM in assay [14]; greater than 100 µM in assay [15]; greater than 100 µM in assay [16]; 80.1 µM in assay [17]; greater than 100 µM in [18].

`COc1cc2c3c(n(C)c(=O)c2cc1OC)-c1cc2c(cc1/C3=C\CCCI)OCO2`: the TGI was greater than 93.3 µM in assay [1]; greater than 100 µM in assay [2]; greater than 100 µM in assay [3]; greater than 100 µM in assay [4]; greater than 75.5 µM in assay [5]; greater than 46.7 µM in [6]. For the same compound, the TGI in assay [7], in [8], in assay [9], in [10], in assay [11] and in assay [12] was greater than 100 µM each time. The TGI in assay [13] was greater than 100 µM; in assay [14], greater than 74.6 µM; in [15], greater than 41.6 µM; in [16] it was greater than 95.3 µM; in [17] it was greater than 95.4 µM; in assay [18] it was greater than 100 µM.

As to `COC(=O)c1c(O)ccc2[nH]c3c(O)c4ccccc4cc3c12`, the TGI was greater than 100 µM in [1]; 37.3 µM in assay [2]; 37.5 µM in assay [3]; 61.8 µM in assay [4]; 72.8 µM in assay [5]; 43.5 µM in assay [6]. In addition, the TGI is greater than 100 µM in assay [7]; 38.8 µM in assay [8]; 67.4 µM in assay [9]; 51.9 µM in assay [10]; 64.3 µM in assay [11]; 63.5 µM in [12]. In addition, the TGI in [13] is 78.4 µM; in assay [14] it was 44.7 µM; in assay [15], 38.1 µM; in [16] it was 60.3 µM; in assay [17], 36.6 µM; in assay [18], greater than 100 µM.

On to `O=C(O)c1cnc(-n2[nH]c3c(c2=O)CCCC3)[nH]c1=O`, for which the TGI in assay [1], in assay [2], in [3], in [4], in assay [5] and in [6] was greater than 100 µM throughout. Further, the TGI in [7], in [8], in [9], in assay [10], in [11] and in [12] was greater than 100 µM in each case. The TGI in assay [13], in assay [14], in assay [15], in assay [16], in assay [17] and in [18] was greater than 100 µM throughout.

As for `CCCCCCCCCCCC[C@@H](O)[C@H]1CCC([C@H](O)CCCCC(=O)CCCCCCCC2=C[C@H](C)OC2=O)O1` (stereo partly specified), the TGI in [1] was greater than 50 µM; in assay [2] it was greater than 30 µM; in assay [3] it was greater than 28.8 µM; in assay [4], greater than 50 µM; in [5], greater than 32.8 µM; in [6], greater than 50 µM. Also, the TGI in assay [7] was greater than 50 µM; in assay [8] it was greater than 50 µM; in [9], greater than 35.8 µM; in assay [10], greater than 50 µM; in [11], greater than 50 µM; in [12] it was greater than 50 µM. In addition, the TGI in [13], in assay [14], in [15], in assay [16], in [17] and in assay [18] was greater than 50 µM throughout.

Consider `Cc1nc(C)c(N2CCNCC2)c(=O)[nH]1`, for which the TGI in assay [1], in assay [2], in [3], in assay [4], in [5] and in assay [6] was greater than 100 µM throughout. Moreover, the TGI in assay [7], in assay [8], in assay [9], in assay [10], in [11] and in [12] was greater than 100 µM in each case. Also, the TGI in assay [13], in assay [14], in [15], in assay [16], in assay [17] and in assay [18] was greater than 100 µM throughout.

For the compound `CC(C)=CCC/C(C)=C/COc1c2ccoc2cc2oc(=O)ccc12`, the TGI is 68.2 µM in assay [1]; 32.4 µM in assay [2]; 50.5 µM in assay [3]; greater than 100 µM in assay [4]; greater than 100 µM in [5]; greater than 100 µM in [6]. The TGI in assay [7] is greater than 100 µM; in assay [8], greater than 100 µM; in assay [9], 89.1 µM; in assay [10] it was 99.6 µM; in assay [11] it was greater than 100 µM; in assay [12] it was greater than 100 µM. In addition, the TGI in [13] is greater than 100 µM; in assay [14] it was 42.1 µM; in assay [15] it was 75.3 µM; in [16] it was greater than 100 µM; in assay [17], greater than 100 µM; in [18], 55.5 µM.

Turning to `Clc1cccc(NN=Nc2ccc(-c3nc4ccccc4s3)cc2)c1`, the TGI in assay [1] was greater than 100 µM; in assay [2] it was greater than 100 µM; in assay [3], 27.2 µM; in [4], 76.8 µM; in [5], greater than 100 µM; in assay [6] it was 54.5 µM. Also, the TGI in [7] was 92.5 µM; in [8], greater than 100 µM; in assay [9], greater than 100 µM; in assay [10], 88.2 µM; in [11], 63.3 µM; in assay [12], greater than 100 µM. Also, the TGI in assay [13] is 74.1 µM; in [14] it was greater than 100 µM; in assay [15] it was greater than 100 µM; in [16] it was greater than 100 µM; in assay [17] it was greater than 100 µM; in [18], greater than 100 µM.
